Measured values reported in patent US20170217946A1, “AMINO-SUBSTITUTED ISOXAZOLES” (Bayer Pharma Aktiengesellschaft, priority 2014, published 2017).

Experiments:
[1] = target: T1, human Bub1 (Homo sapiens, UniProt O43683); test: Bub1 kinase assay (TR-FRET); format: biochemical; conditions: 10 μM ATP
T1 construct: catalytic domain of human Bub1 (amino acids 704-1085); His6 (N); made in house; host or cells: insect cells (Hi5)
Source text: Bub1-inhibitory activity of compounds of the present invention was quantified employing the Bub1 TR-FRET assay as described in the following paragraphs.
N-terminally His6-tagged recombinant catalytic domain of human Bub1 (amino acids 704-1085), expressed in insect cells (Hi5) and purified by Ni-NTA affinity chromatography and subsequent size exclusion chromatography, was used as enzyme. As substrate for the kinase reaction the biotinylated peptide biotin-Ahx-VLLPKKSFAEPG (C-terminus in amid form) was used which can be purchased e.g. form the company Biosyntan (Berlin, Germany).
For the assay 50 nl of a 100 fold concentrated solution of the test compound in DMSO was pipetted into a black low volume 384 well microtiter plate (Greiner Bio-One, Frickenhausen, Germany), 2 μl of a solution of Bub1 in aqueous assay buffer [50 mM Tris/HCl pH 7.5, 10 mM magnesium chloride (MgCl2), 200 mM potassium chloride (KCl), 1.0 mM dithiothreitol (DTT), 0.1 mM sodium ortho-vanadate, 1% (v/v) glycerol, 0.01% (w/v) bovine serum albumine (BSA), 0.005% (v/v) Trition X-100 (Sigma), 1× Complete EDTA-free protease inhibitor mixture (Roche)] were added and the mixture was incubated for 15 min at 22° C. to allow pre-binding of the test compounds to the enzyme before the start of the kinase reaction. Then the kinase reaction was started by the addition of 3 μl of a solution of adenosine-tri-phosphate (ATP, 16.7 μM=>final conc. in the 5 μl assay volume is 10 μM) and substrate (1.67 μM=>final conc. in the 5 μl assay volume is 1 μM) in assay buffer and the resulting mixture was incubated for a reaction time of 60 min at 22° C. The concentration of Bub1 was adjusted depending of the activity of the enzyme lot and was chosen appropriate to have the assay in the linear range, typical concentrations were in the range of 200 ng/ml. The reaction was stopped by the addition of 5 μl of a solution of TR-FRET detection reagents (0.2 μM streptavidine-XL665 [Cisbio Bioassays, Codolet, France] and 1 nM anti-phosho-Serine antibody [Merck Millipore, cat. #35-001] and 0.4 nM LANCE EU-W1024 labeled anti-mouse IgG antibody [Perkin-Elmer, product no. AD0077, as an alternative a Terbium-cryptate-labeled anti-mouse IgG antibody from Cisbio Bioassays can be used]) in an aqueous EDTA-solution (50 mM EDTA, 0.2% (w/v) bovine serum albumin in 100 mM HEPES pH 7.5).
The resulting mixture was incubated 1 h at 22° C. to allow the formation of complex between the phosphorylated biotinylated peptide and the detection reagents. Subsequently the amount of phosphorylated substrate was evaluated by measurement of the resonance energy transfer from the Eu-chelate to the streptavidine-XL. Therefore, the fluorescence emissions at 620 nm and 665 nm after excitation at 350 nm was measured in a TR-FRET reader, e.g. a Rubystar or Pherastar (both from BMG Labtechnologies, Offenburg, Germany) or a Viewlux (Perkin-Elmer). The ratio of the emissions at 665 nm and at […] was taken as the measure for the amount of phosphorylated substrate. The data were normalised (enzyme reaction without inhibitor=0% inhibition, all other assay components but no enzyme=100% inhibition).

[2] = system: HeLa cells; test: Proliferation assay (crystal violet); format: cell-based; conditions: Homo sapiens, 96 h, 4 days incubation, read-out: Inhibition of proliferation HeLa IC50
Procedure: Cultivated tumor cells (cells were ordered from ATCC, except HeLa-MaTu and HeLa-MaTu-ADR, which were ordered from EPO-GmbH, Berlin) were plated at a density of 1000 to 5000 cells/well, depending on the growth rate of the respective cell line, in a 96-well multititer plate in 200 μL of their respective growth medium supplemented 10% fetal calf serum. After 24 hours, the cells of one plate (zero-point plate) were stained with crystal violet (see below), while the medium of the other plates was replaced by fresh culture medium (200 μl), to which the test substances were added in various concentrations (0 μM, as well as in the range of 0.001-10 μM; the final concentration of the solvent dimethyl sulfoxide was 0.5%). The cells were incubated for 4 days in the presence of test substances. Cell proliferation was determined by staining the cells with crystal violet: the cells were fixed by adding 20 μl/measuring point of an 11% glutaric aldehyde solution for 15 minutes at room temperature. After three washing cycles of the fixed cells with water, the plates were dried at room temperature. The cells were stained by adding 100 μl/measuring point of a 0.1% crystal violet solution (pH 3.0). After three washing cycles of the stained cells with water, the plates were dried at room temperature. The dye was dissolved by adding 100 μl/measuring point of a 10% acetic acid solution. Absorption was determined by photometry at a wavelength of 595 nm. The change of cell number, in percent, was calculated by normalization of the measured values to the absorption values of the zero-point plate (=0%) and the absorption of the untreated (0 μm) cells (=100%). The IC50 values were determined by means of a 4 parameter fit.

T1 sequence (O43683 704-1085): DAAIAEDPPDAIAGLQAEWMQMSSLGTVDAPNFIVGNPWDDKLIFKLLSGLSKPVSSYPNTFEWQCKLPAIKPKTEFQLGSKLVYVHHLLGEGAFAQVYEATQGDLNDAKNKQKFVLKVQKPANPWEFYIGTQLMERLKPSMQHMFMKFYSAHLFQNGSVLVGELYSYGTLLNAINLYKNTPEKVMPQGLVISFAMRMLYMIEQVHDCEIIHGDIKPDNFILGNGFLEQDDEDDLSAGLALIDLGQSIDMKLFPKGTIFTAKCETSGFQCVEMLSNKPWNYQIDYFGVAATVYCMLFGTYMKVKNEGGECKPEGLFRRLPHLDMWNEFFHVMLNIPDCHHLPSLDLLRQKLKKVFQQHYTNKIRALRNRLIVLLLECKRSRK

Compound | IC50 [1] | IC50 [2]
Cc1noc(Nc2cnc(C(F)(F)F)cn2)c1C(=O)Nc1ccc(OC[C@H]2CCN(CC(F)(F)F)C2)nc1 [Example 8a, 3-Methyl-N-(6-{[(3S)-1-(2,2,2-trifluoroethyl)pyrrolidin-3-yl]methoxy}pyridin-3-yl)-5-{[5-(trifluoromethyl)pyrazin-2-yl]amino}-1,2-oxazole-4-carboxamide] | > 20 µM | 1.9 µM
Cc1noc(Nc2cnc(C(F)(F)F)cn2)c1C(=O)Nc1ccc(OC[C@H]2CCN(CCC(F)(F)F)C2)nc1 [Example 9a, 3-Methyl-5-{[5-(trifluoromethyl)pyrazin-2-yl]amino}-N-(6-{[(3S)-1-(3,3,3-trifluoro-propyl)pyrrolidin-3-yl]methoxy}pyridin-3-yl)-1,2-oxazole-4-carboxamide] | > 20 µM | 3.1 µM
Cc1noc(Nc2cnc(C(F)(F)F)cn2)c1C(=O)Nc1ccc(OC[C@@H]2CCN(CCC(F)(F)F)C2)nc1 [Example 5a, 3-Methyl-5-{[5-(trifluoromethyl)pyrazin-2-yl]amino}-N-(6-{[(3R)-1-(3,3,3-trifluoro-propyl)pyrrolidin-3-yl]methoxy}pyridin-3-yl)-1,2-oxazole-4-carboxamide] | > 20 µM | 3.3 µM
Cc1noc(Nc2cnc(C(F)(F)F)cn2)c1C(=O)Nc1ccc(OC[C@@H]2CCN(CC(F)(F)F)C2)nc1 [Example 4a, 3-Methyl-N-(6-{[(3R)-1-(2,2,2-trifluoroethyl)pyrrolidin-3-yl]methoxy}pyridin-3-yl)-5-{[5-(trifluoromethyl)pyrazin-2-yl]amino}-1,2-oxazole-4-carboxamide] | > 20 µM | 2.8 µM

Now from value to molecule:

IC50 [1] | IC50 [2] | Compound
> 20 µM | 4 µM | Cc1noc(Nc2cnc(C(F)(F)F)cn2)c1C(=O)Nc1ccc(OC[C@H]2CCN(CC(F)F)C2)nc1 [Example 7a, N-(6-{[(3S)-1-(2,2-difluoroethyl)pyrrolidin-3-yl]methoxy}pyridin-3-yl)-3-methyl-5-{[5-(trifluoromethyl)pyrazin-2-yl]amino}-1,2-oxazole-4-carboxamide]
> 20 µM | 3.4 µM | Cc1noc(Nc2cnc(C(F)(F)F)cn2)c1C(=O)Nc1ccc(OC[C@@H]2CCN(CC(F)F)C2)nc1 [Example 3a, N-(6-{[(3R)-1-(2,2-difluoroethyl)pyrrolidin-3-yl]methoxy}pyridin-3-yl)-3-methyl-5-{[5-(trifluoromethyl)pyrazin-2-yl]amino}-1,2-oxazole-4-carboxamide]
> 20 µM | 2.7 µM | COc1ccc(NC(=O)c2c(C)noc2Nc2cnc(C(F)(F)F)cn2)cn1 [Example 2c, N-(6-methoxypyridin-3-yl)-3-methyl-5-{[5-(trifluoromethyl)pyrazin-2-yl]amino}-1,2-oxazole-4-carboxamide]
